The target of this test is DPP4 (Homo sapiens, UniProt P27487). The test can be described thus: DPP4 activity assay (DPP4 inhibitor screening assay kit, Cayman).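 On all read-outs here: fluorescence read at excitation 360 nm and emission 460 nm after the enzyme reaction ran 30 min at 37 °C in a 96-well plate.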 The conditions noted are these: for remaining activity at 10 µM: 0.5 h. It counts as biochemical. Details: purchased Cayman Chemical, Ann Arbor, MI, USA.
Where [1] appears, read: 10 µM, control mean 100.0, Figure 1A raw data.
[2] abbreviates: 10 µM, control mean 100.0, mean of Exp 1-3.
[3] abbreviates: 10 µM, control mean 100.0, Figure 1A raw data, read-out: DPP4 activity in library screen, Exp 1.
The mark [4] stands for this setting: 10 µM, control mean 100.0, Figure 1A raw data, read-out: DPP4 activity in library screen, Exp 2.
Setting [5] is: 10 µM, control mean 100.0, Figure 1A raw data, read-out: DPP4 activity in library screen, Exp 3.
Setting [6] is: 10 µM, control mean 100.0, mean of Exp 1-3, read-out: DPP4 activity in library screen, Mean.
[7] abbreviates: read-out: DPP4 activity in library screen, Exp 1, 10 µM, control mean 100.0, Figure 1A raw data.
Setting [8] is: read-out: DPP4 activity in library screen, Exp 2, 10 µM, control mean 100.0, Figure 1A raw data.
[9] abbreviates: read-out: DPP4 activity in library screen, Exp 3, 10 µM, control mean 100.0, Figure 1A raw data.
The mark [10] stands for this setting: read-out: DPP4 activity in library screen, Mean, 10 µM, control mean 100.0, mean of Exp 1-3.

Counter-ions that a name gives are not always drawn. Like-named read-outs stand apart in the source and are kept apart here.

DPP4, sequence (P27487 whole entry): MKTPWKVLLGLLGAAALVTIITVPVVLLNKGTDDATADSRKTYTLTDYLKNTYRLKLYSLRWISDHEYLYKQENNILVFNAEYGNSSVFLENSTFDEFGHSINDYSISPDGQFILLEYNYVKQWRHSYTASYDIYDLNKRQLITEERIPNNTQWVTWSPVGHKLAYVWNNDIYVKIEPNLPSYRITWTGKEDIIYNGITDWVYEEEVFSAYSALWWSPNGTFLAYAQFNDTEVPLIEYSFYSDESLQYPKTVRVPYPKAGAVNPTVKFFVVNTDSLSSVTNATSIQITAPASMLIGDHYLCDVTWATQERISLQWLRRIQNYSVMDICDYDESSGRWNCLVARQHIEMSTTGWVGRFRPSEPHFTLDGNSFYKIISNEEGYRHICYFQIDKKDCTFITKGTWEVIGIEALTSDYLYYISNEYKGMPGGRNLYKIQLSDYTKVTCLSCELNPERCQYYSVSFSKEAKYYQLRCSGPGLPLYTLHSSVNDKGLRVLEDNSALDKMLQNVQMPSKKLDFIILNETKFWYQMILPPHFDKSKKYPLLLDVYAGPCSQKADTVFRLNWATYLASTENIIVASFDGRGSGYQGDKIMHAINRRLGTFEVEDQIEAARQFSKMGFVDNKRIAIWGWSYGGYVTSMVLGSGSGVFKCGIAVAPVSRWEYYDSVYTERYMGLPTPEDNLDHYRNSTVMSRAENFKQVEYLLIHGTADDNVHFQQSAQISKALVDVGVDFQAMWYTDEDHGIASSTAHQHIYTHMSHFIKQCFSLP

As for `CC1(C)CCC[C@]2(C)[C@H]3CC(=O)O[C@]3(C)CC[C@@H]12` [Sclareolide], under setting [1], the “DPP4 activity in library screen, Exp 1” value was 95.1; the “DPP4 activity in library screen, Exp 2” value came out at 80.7; the “DPP4 activity in library screen, Exp 3” value worked out at 80.2. In addition, the “DPP4 activity in library screen, Mean” value under setting [2] was determined as 85.3.
Turning to `c1cc2c(cc1[C@H]1OC[C@H]3[C@@H]1CO[C@@H]3c1ccc3c(c1)OCO3)OCO2` [Sesamin], the remaining activity at 10 µM runs as follows: under setting [3], 93.7%; under setting [4], 90%; under setting [5], 85.5%; under setting [6], 89.7%.
The like results for `O=C(O)C1=C[C@@H](O)[C@@H](O)[C@H](O)C1` [Shikimic Acid] were, in that order, 87.3%, 80.7%, 84.9% and 84.3%.
For `COc1cc(C2Oc3cc([C@H]4Oc5cc(O)cc(O)c5C(=O)[C@@H]4O)ccc3OC2CO)ccc1O` (stereo partly shown) [Silibinin], the remaining activity at 10 µM is, setting by setting: under setting [3], 65.1%; under setting [4], 76.8%; under setting [5], 67.3%; under setting [6], 69.7%.
Turning to `COC1=C[C@@H]2[C@@H]3Cc4ccc(OC)c(O)c4[C@]2(CCN3C)CC1=O` [Sinomenine], the remaining activity at 10 µM (read-out: DPP4 activity in library screen, Exp 1) worked out at 103%; the remaining activity at 10 µM (read-out: DPP4 activity in library screen, Exp 2) came out at 93.4%; the remaining activity at 10 µM (read-out: DPP4 activity in library screen, Mean) was 104%.
Turning to `O=C([O-])C(O)Cc1ccc(O)c(O)c1.[Na+]` (stereo not shown) [Sodium Danshensu], under setting [1], the “DPP4 activity in library screen, Exp 1” value is given as 95.8; the “DPP4 activity in library screen, Exp 2” value came to 90.3; the “DPP4 activity in library screen, Exp 3” value came out at 90.2. Further, the “DPP4 activity in library screen, Mean” value under setting [2] was 92.1.
For the compound `O=C1C=CC[C@@H]2[C@H]3CCCN4CCC[C@@H](CN12)[C@@H]34` [Sophocarpine], the remaining activity at 10 µM is, setting by setting: under setting [3], 96.7%; under setting [4], 109%; under setting [5], 111%; under setting [6], 105%.
The like results for `OC[C@@H](O)[C@@H](O)[C@H](O)[C@@H](O)CO` [Sorbitol] were, in that order, 94.5%, 91.5%, 90.4% and 92.1%.
Regarding `CNCC(O)c1ccc(O)cc1` (stereo not shown) [Synephrine], the remaining activity at 10 µM reads like this: under setting [3], 98.7%; under setting [4], 76.9%; under setting [5], 87.7%; under setting [6], 87.8%.
For `COc1ccc(-c2cc(=O)c3c(OC)c(OC)c(OC)c(OC)c3o2)cc1` [Tangeretin], the remaining activity at 10 µM is 75.6% under setting [3], 80.1% under setting [4], 66.2% under setting [5] and 74% under setting [6].
The like results for `Cc1coc2c1C(=O)C(=O)c1c-2ccc2c1CCCC2(C)C` [Tanshinone IIA] were, in that order, 50.8%, 56.6%, 69.7% and 59%.
Regarding `Cc1coc2c1C(=O)C(=O)c1c-2ccc2c(C)cccc12` [Tanshinone I], the remaining activity at 10 µM reads like this: under setting [3], 56.8%; under setting [4], 59.3%; under setting [5], 58.1%; under setting [6], 58.1%.
On to `O=C1c2c(O)cc(O)cc2OC(c2ccc(O)c(O)c2)C1O` (stereo not shown) [Taxifolin (Dihydroquercetin), Taxifolin], for which the remaining activity at 10 µM was 93.8% under setting [3], 83.2% under setting [4], 67.9% under setting [5] and 81.6% under setting [6].
For `COc1ccc(CC2NCCc3cc(OC)c(OC)cc32)cc1OC.Cl` (stereo not shown) [Tetrahydropapaverine HCl], under setting [1], the “DPP4 activity in library screen, Exp 1” value turned out to be 92.5; the “DPP4 activity in library screen, Exp 2” value is given as 78; the “DPP4 activity in library screen, Exp 3” value came out at 76.9. Besides, the “DPP4 activity in library screen, Mean” value under setting [2] is 82.5.
Turning to `COc1ccc2cc1Oc1ccc(cc1)C[C@H]1c3cc(c(OC)cc3CCN1C)Oc1c(OC)c(OC)cc3c1[C@H](C2)N(C)CC3` [Tetrandrine], the remaining activity at 10 µM under setting [3] is 99.9%, the remaining activity at 10 µM under setting [4] came out at 98%, the remaining activity at 10 µM under setting [5] is 99.8% and the remaining activity at 10 µM under setting [6] was 99.2%.
The like results for `C[C@H]1CC[C@]2(NC1)O[C@H]1C[C@H]3[C@@H]4CC[C@H]5C[C@@H](O[C@@H]6O[C@H](CO)[C@H](O[C@@H]7O[C@H](CO)[C@@H](O)[C@H](O[C@@H]8OC[C@@H](O)[C@H](O)[C@H]8O)[C@H]7O[C@@H]7O[C@H](CO)[C@@H](O)[C@H](O)[C@H]7O)[C@H](O)[C@H]6O)CC[C@]5(C)[C@H]4CC[C@]3(C)[C@H]1[C@@H]2C` [Tomatine] were, in that order, 103%, 91.8%, 124% and 106%.
Consider `CC(C)[C@]12O[C@H]1[C@@H]1O[C@]13[C@]1(O[C@H]1C[C@H]1C4=C(CC[C@@]13C)C(=O)OC4)[C@@H]2O` [Triptolide (PG490), Triptolide], for which the remaining activity at 10 µM under setting [7] is 98.7%, the remaining activity at 10 µM under setting [8] came to 94.9%, the remaining activity at 10 µM under setting [9] was 109% and the remaining activity at 10 µM under setting [10] came to 101%.
On to `C[C@@H]1O[C@@H](OC[C@H]2O[C@@H](Oc3c(-c4ccc(OCCO)c(OCCO)c4)oc4cc(OCCO)cc(O)c4c3=O)[C@H](O)[C@@H](O)[C@@H]2O)[C@H](O)[C@H](O)[C@H]1O` [Troxerutin], for which the remaining activity at 10 µM came to 69.8% under setting [3], 62.2% under setting [4], 57.2% under setting [5] and 63.1% under setting [6].
As to `C[C@H]1[C@H](C)CC[C@]2(C(=O)O)CC[C@]3(C)C(=CC[C@@H]4[C@@]5(C)CC[C@H](O)C(C)(C)[C@@H]5CC[C@]43C)[C@H]12` [Ursolic Acid], the remaining activity at 10 µM runs as follows: under setting [3], 85.1%; under setting [4], 78.9%; under setting [5], 89.1%; under setting [6], 84.4%.
Take `COc1cc(C=O)ccc1O` [Vanillin]: the remaining activity at 10 µM under setting [3] came out at 105%, the remaining activity at 10 µM under setting [4] is 95.3%, the remaining activity at 10 µM under setting [5] was 51.5% and the remaining activity at 10 µM under setting [6] was 83.8%.
In the case of `COc1cc(CCC(C)=O)ccc1O` [Vanillylacetone], under setting [1], the “DPP4 activity in library screen, Exp 1” value is recorded as 87.8; the “DPP4 activity in library screen, Exp 2” value was found to be 96.8; the “DPP4 activity in library screen, Exp 3” value was determined as 79.9. The “DPP4 activity in library screen, Mean” value under setting [2] worked out at 88.2.
On to `COc1cc(O)c(CC=C(C)C)c(O)c1C(=O)/C=C/c1ccc(O)cc1` [Xanthohumol], for which the remaining activity at 10 µM by setting is: under setting [3], 94.5%; under setting [4], 102%; under setting [5], 126%; under setting [6], 107%.
The like results for `O=c1c2ccccc2oc2ccccc12` [Xanthone] were, in that order, 88.9%, 79.9%, 77.7% and 82.2%.
Consider `COC(=O)[C@@H]1[C@H]2C[C@H]3c4[nH]c5ccccc5c4CCN3C[C@@H]2CC[C@@H]1O` [Yohimbine HCl], for which the remaining activity at 10 µM by setting is: under setting [7], 92.1%; under setting [8], 92.7%; under setting [9], 90.1%; under setting [10], 91.6%.
As to `CC[C@H](CC[C@@H](C)[C@H]1CC[C@H]2[C@@H]3CC=C4C[C@@H](O)CC[C@]4(C)[C@H]3CC[C@]12C)C(C)C` [beta-sitosterol], the remaining activity at 10 µM under setting [3] was determined as 98.6%, the remaining activity at 10 µM under setting [4] turned out to be 92.3%, the remaining activity at 10 µM under setting [5] was 104% and the remaining activity at 10 µM under setting [6] turned out to be 98.2%.
Regarding `COC12c3c(C)cc(O)c4c(=O)occ(c34)C(=O)C1C13COC(=O)c4c(O)cc(C)c(c41)C(=O)C2C3OC(C)=O` (stereo not shown) [duclauxin], under setting [1], the “DPP4 activity in library screen, Exp 1” value is reported as 98.3; the “DPP4 activity in library screen, Exp 2” value was determined as 99.5; the “DPP4 activity in library screen, Exp 3” value came to 163.1. Further, the “DPP4 activity in library screen, Mean” value under setting [2] amounted to 120.3.
Methyl-Hesperidin: under setting [1], the “DPP4 activity in library screen, Exp 1” value is 98.7; the “DPP4 activity in library screen, Exp 2” value was 101.2; the “DPP4 activity in library screen, Exp 3” value is given as 74.4. Besides, the “DPP4 activity in library screen, Mean” value under setting [2] worked out at 91.4.
As for Myricitrin, under setting [1], the “DPP4 activity in library screen, Exp 1” value is on record as 67; the “DPP4 activity in library screen, Exp 2” value came out at 70.2; the “DPP4 activity in library screen, Exp 3” value came to 70.2. Besides, under setting [2], the “DPP4 activity in library screen, Mean” value turned out to be 69.1.
As for xenoclauxin, under setting [1], the “DPP4 activity in library screen, Exp 1” value stood at 105.6; the “DPP4 activity in library screen, Exp 2” value is 107.6; the “DPP4 activity in library screen, Exp 3” value was 132.5. In addition, the “DPP4 activity in library screen, Mean” value under setting [2] worked out at 115.2.

These data come from article PMC5428354, “Screening of a natural compound library identifies emodin, a natural compound from Rheum palmatum Linn that inhibits DPP4” (PeerJ, 2017).
